{"source": "patent EP4316475A1", "about": "“MERKEL CELL ACTIVATOR, SYNAPTIC VESICLE ENHANCER, NEUROTRANSMITTER RELEASE ACCELERATOR, METHOD FOR ASSESSING NEUROTRANSMITTER RELEASE ACTIVITY OF MERKEL CELLS, AND METHOD FOR SCREENING FOR NEUROTRANSMITTER RELEASE ACCELERATOR FOR MERKEL CELLS” (Shiseido Company, Ltd., priority 2021, dated 2022)", "key": {"[1]": {"test_system": "Merkel cells", "assay": "Piccolo expression in CK20-positive Merkel cells of cultured scalp samples (fluorescent immunohistochemical staining)", "type": "cell-based, Human", "conditions": "Sandalore 500 µM in medium from day 1, samples collected day 3, control 0.1% DMSO", "description": "Human scalp from the temporal and occipital regions was taken from healthy female subjects (47 to 60 years of age) that had received common cosmetic surgery, and used after obtaining informed consent and ethical approval (Muenster University).\nScalp samples including hair follicles were taken using a 6 mm punch from the occipital region (donors 1, 2, 3 and 4) or the temporal region (donor 5) of subjects: a person (donor 1), a person (donor 2), a person (donor 3), a person (donor 4) and a donor 5). The obtained samples were placed in 25 ng/ml NGF-added DMEM/F12 medium and cultured in a 5% CO2 humidified atmosphere at 37°C (day 0). […]\nThe primary antibodies used were anti-CK20 antibody (distributor: Progen, Product No.: Product No.: 61054) and anti-Piccolo antibody (distributor: Novus Biologicals (Tocris), Product No.: NBP1-90250), and the subsequent secondary antibodies used were Goat anti-Rabbit IgG (H+L) Cross-Adsorbed Secondary Antibody (distributor: Invitrogen, Product No.: A-11008) and Goat anti-Mouse IgG (H+L) Highly Cross-Adsorbed Secondary Antibody (distributor: Invitrogen, Product No.: A-11030), in combination with each of the primary antibodies, respectively. […] The number of CK20-positive cells expressing Piccolo in a specified region in a photograph taken under a fluorescent microscope were counted and shown in a graph (Fig. 4C)."}, "[2]": {"test_system": "Merkel cells", "assay": "Neurotransmitter release by Merkel cells in fresh skin epidermis ex vivo (FFN206 fluorescent tracer live imaging)", "type": "cell-based, human", "conditions": "500 µM Sandalore/BSS solution circulated from 300 s to 600 s; control BSS solution alone", "protocol": "Fresh skin excised from the abdominal region of a healthy subject and a healthy subject, both having undergone cosmetic surgery, was used for experimentation within 5 days, after obtaining informed consent and ethical approval. The skin was exposed to 25 units/ml of a dispase-PBS solution for 15 minutes at 37°C to detach the epidermis.\nThe epidermis isolated from the fresh human skin was cultured for 30 minutes in a high-potassium extracellular solution (5 mM NaCl, 140 mM KCl, 10 mM HEPES (pH 7.4), 10 mM D-glucose, 2 mM MgCl2 and 2 mM CaCl2) containing FFN206 (Tocris, Catalog No. 5043), and the fluorescent-labeled neurotransmitter FFN206 was specifically taken up into the Merkel cells.\nBSS (Balanced salt solution) solution (140 mM NaCl, 5 mM KCl, 10 mM HEPES (pH 7.4), 10 mM D-glucose, 2 mM MgCl2 and 2 mM CaCl2) was circulated for the first 5 minutes, as baseline. After 5 minutes (300 s) until the end of observation (600 s), circulation was with 500 µM Sandalore (Givaudan)/BSS solution (A). […]\nThe cell response was evaluated based on the brightness value of FFN206, using cellSens (Olympus) and MATLAB (Mathworks). […] The change in brightness value of the baseline in each ROI was determined by nonlinear approximation, and the brightness value with the effect of discoloration eliminated was determined based on the approximation results for baseline. […]"}}, "note": "“Also recorded” adds a separate entry of the source.", "data": [{"smiles": "CC1=CCC(CCC(C)C(C)O)C1(C)C", "note": "(centres unmarked) [Sandalore, 3-methyl-5-(2,2,3-trimethyl-cyclopenta-3-en-1-yl)-pentan-2-ol]", "values": [{"measurement": "number of CK20-positive cells expressing Piccolo in a specified region", "setting": "[1]", "value": "increased the number of Merkel cells expressing Piccolo"}, {"measurement": "fluorescent brightness value of Merkel cells (FFN206 signal)", "setting": "[2]", "value": "the fluorescent brightness value decreased; also recorded: the brightness value continued to decrease beyond the reaction line calculated from baseline"}]}]}
